According to US4567169A, “Nitrosourea substituted phosphonates and pharmaceutical use” (priority 1982, dated 1986):

What was measured:
[1] = test system: pyruvic glutamic transaminase; assay: hepatic toxicity (Wroblewski's method), pyruvic glutamic transaminase activity in serum; type: in vivo, Long Evans rats
Protocol: The hepatic toxicity is assessed according to Wroblewski's method by measuring the pyruvic glutamic transaminase activity contained in the serum from Long Evans rats treated with an intraperitoneal injection of 25 mg/kg of BCNU or with equipotential doses of the compounds according to the invention.

[2] = test system: tumour-bearing mice (tumorous cells inoculated by intraperitoneal or intramuscular route); assay: capacity to increase the life-span of mice bearing tumorous cells (NCI protocols, Geran et al.); type: in vivo; conditions: 5 mg/kg
Protocol: The compounds according to the invention are tested by their capacity to increase the life-span of mice bearing tumorous cells inoculated by intraperitoneal or intramuscular route in accordance with the protocols edicted by the National Cancer Institute (U.S.A.) and published by R. I. GERAN et al. in Cancer Chemotherapy Reports 1972, part III, Vol. 3 (2), 1-87.
Given per os, these compounds increase the life-span of tumor-bearing animals. The rate of effectiveness of the active doses per os over the active dose by intraperitoneal route is greater for the compounds according to the invention than for the reference products (F. SPREAFICO et al. in Nitrosoureas: current status and new developments, A. W. PRESTAYKO et al. editors, 1981, Academic Press (New York); Experimental Evaluation of Antitumor Drugs in the USA and USSR and clinical correlations; National Cancer Institute Monograph No. 55; National Institutes of Health USA 1980).

pulmonary metastases = assay: antimetastatic capacity: reduction in number and weight of pulmonary metastases developed after intramuscular inoculation of carcinoma cells; type: in vivo; conditions: 10 mg/kg as a curative treatment for 9 days
Protocol: The antimetastatic capacity of the compounds of the present invention is measured by the reduction, compared with untreated animals, in the number and weight of pulmonary metastases developed after intramuscular inoculation of carcinoma cells.

SMILES | hepatic toxicity ([1]; intraperitoneal injection of 25 mg/kg of BCNU or equipotential doses of the compounds) | long-term survivors [2] | serum pyruvic glutamic transaminase level ([1]; 25 mg/kg, Long Evans rats) | formation of metastases (pulmonary metastases)
O=NN(CCCl)C(=O)NCCCl [BCNU, N-N'-bis(2-chloroethyl)-N-nitrosourea, reference compound] | notable hepatic toxicity |  |  | 
CCOP(=O)(OCC)C(C)NC(=O)N(CCCl)N=O (stereo not shown) [Example 4, 1-[N-(2-chloroethyl)-N-nitrosoureido]ethylphosphonic acid diethyl ester] |  | inducing long-term survivors | does not lead to an increase in the enzyme level outside the range usually found in untreated rats | prevents the formation of metastases
